The source of these data is patent US12491185B2, “Inhibitors of mPTP” (NRG Therapeutics Ltd, priority 2023, dated 2025).

Bounds are passed on as bounds.

The assay relates to mPTP. Kind of assay: mPTP activity (Ca2+ retention) assay in isolated rat liver mitochondria. The assay is classed as biochemical. The following applies: examples tested by different contract research organisations, believed comparable. An excerpt: Pharmacological inhibition or modulation of the mPTP can be measured in well characterised ‘Ca^2+ retention’ assays performed in isolated mitochondria. In vitro, isolated mitochondria rapidly sequester exogenous Ca^2+ until the intramitochondrial Ca^2+ concentration reaches the threshold for mPTP activation. Once the pore is activated, mitochondrial integrity is compromised and the stored Ca^2+ is released. The distribution of Ca^2+ between extra- and intra-mitochondrial compartments can be measured in real time with the use of membrane-impermeant Ca^2+ sensitive fluorescent dyes. Depending on the configuration of the assay, inhibition or modulation of the mPTP either delays the opening of the pore or increases the concentration of Ca^2+ required to induce mPTP opening.
MPTP activity was measured in mitochondria freshly isolated from female Sprague Dawley (250 to 300 gram) rat livers using the following method. Cervical dislocation was performed on the rat. The liver was then perfused in-situ with −40 ml cold Dulbecco's Phosphate Buffered Saline (DPBS) prior to dissection and transferred into 30 ml Isolation Buffer (250 mM Sucrose, 10 mM KCl, 1 mM EGTA, 1 mM EDTA, 25 mM HEPES, adjusted to pH 7.5 with 1M NaOH). Each lobe of the liver was then removed from the buffer, minced using tweezers and a scalpel into −5 mm pieces then transferred into a 50 ml Potterton dounce homogenization tube on ice containing 30 ml ice-cold centrifugation buffer (300 mM Trehalose, 25 mM HEPES, 1 mM EGTA, 1 mM EDTA, 10 mM KCl, adjusted to pH 7.5 with 1M NaOH and supplemented with 0.1% bovine serum albumin (BSA) and complete protease inhibitor cocktail (one tablet of inhibitor per 50 mls of buffer). Homogenisation was carried out using a teflon pestle at 1800 rpm. The slurry was centrifuged at 800 g for 10 min at 4° C., then the supernatant centrifuged at 10,000 g for 10 min. The pellet was washed once with FLIPR assay buffer (75 mM Mannitol, 25 mM Sucrose, 5 mM Potassium Phosphate Monobasic, 20 mM Tris base, 100 mM KCl, 0.1% BSA adjusted to pH 7.4 with 5M HCl) centrifuged again, then resuspended in FLIPR assay buffer to a concentration of 8.8 mg/ml protein.
Tested compounds (10 mM stock in DMSO) were serially diluted in DMSO in half log steps to generate 10 test concentrations (final concentrations in assay 30 μM to 1 nM). An intermediate dilution of 5 μl DMSO samples into 247 μl FLIPR assay buffer was carried out prior to transfer of 5 μl into duplicate wells of a 384 well polypropylene assay plate. Control wells were 0.5% (v/v) DMSO and 5 μM cyclosporin A.
A stock mitochondria/Fluo5N assay solution was prepared in 5.6 ml FLIPR assay buffer (at RT) supplemented with succinate disodium salt (10 mM), rotenone (1 μM), Fluo5N pentapotassium salt (2 μM) and 1 ml mitochondria suspension, then transferred (15 μl) into the assay plate containing test compounds and incubated for 10 min at RT. Assay plates were processed for fluorescence detection on either a FLIPR Tetra (Molecular Devices) or CLARIOstar (BMG) plate reader. For kinetic fluorescence detection on the FLIPR, dye fluorescence was measured every 3 sec for a total of 10 min. After 12 sec, a 2.5 μl bolus of CaCl2 (75 μM) was added from a source plate containing 675 μM CaCl2 in FLIPR assay buffer. Alternatively, the 2.5 μl addition of CaCl2 was performed using a Viaflow 384, plates were incubated at RT for 10 min, and dye fluorescence measured after 10 min on the CLARIOstar plate reader. pIC50 values for tested compounds were calculated using the fluorescence value collected at the 10 min timepoint on either plate reader, with % inhibition calculated using the DMSO control and cyclosporin A values as 0 and 100% respectively.
With `Cc1cc(Cl)ccc1CC1(CNC(=O)c2nn(C)c(=O)[nH]2)CCC1` [Example 91, N-((1-(4-Chloro-2-methylbenzyl)cyclobutyl)methyl)-1-methyl-5-oxo-4,5-dihydro-1H-1,2,4-triazole-3-carboxamide], the “mPTP Rat liver pIC50” value worked out at 5.75.
The same measure for `Cn1nc(C(=O)NCC(Cc2ccc(F)cc2F)C2CC2)[nH]c1=O` (stereo not drawn) [Example 93, N-(2-Cyclopropyl-3-(2,4-difluorophenyl)propyl)-1-methyl-5-oxo-4,5-dihydro-1H-1,2,4-triazole-3-carboxamide]: 6.58; for `Cc1cccc(CC2(CNC(=O)c3nn(C)c(=O)[nH]3)CCC2)c1F` [Example 94, N-((1-(2-Fluoro-3-methylbenzyl)cyclobutyl)methyl)-1-methyl-5-oxo-4,5-dihydro-1H-1,2,4-triazole-3-carboxamide]: 5.77.
The same measure for `Cn1nc(C(=O)NC[C@@H](Cc2ccc(F)cc2F)C2CC2)[nH]c1=O` [Example 97, (S)—N-(2-cyclopropyl-3-(2,4-difluorophenyl)propyl)-1-methyl-5-oxo-4,5-dihydro-1H-1,2,4-triazole-3-carboxamide]: 5.66.
In the case of `Cn1nc(C(=O)NCC2(Cc3ccc(F)cc3OC(F)(F)F)CCC2)[nH]c1=O` [Example 102, N-((1-(4-fluoro-2-(trifluoromethoxy)benzyl)cyclobutyl)methyl)-1-methyl-5-oxo-4,5-dihydro-1H-1,2,4-triazole-3-carboxamide], the “mPTP Rat liver pIC50” value was under 4.57.
Consider `Cn1nc(C(=O)NCC(Cc2ccc(F)cc2F)C2CCCC2)[nH]c1=O` (stereo not drawn) [Example 103, N-(2-cyclopentyl-3-(2,4-difluorophenyl)propyl)-1-methyl-5-oxo-4,5-dihydro-1H-1,2,4-triazole-3-carboxamide], for which the “mPTP Rat liver pIC50” value is recorded as under 4.57.
The same measure for `Cn1nc(C(=O)NCC2(Cc3ccc(C(F)(F)F)cc3F)CCC2)[nH]c1=O` [Example 104, N-((1-(2-fluoro-4-(trifluoromethyl)benzyl)cyclobutyl)methyl)-1-methyl-5-oxo-4,5-dihydro-1H-1,2,4-triazole-3-carboxamide]: under 4.57; for `O=C(NCC1(Cc2ccc(F)cc2F)CCC1)c1nnc(C(F)(F)F)[nH]1` [Example 105, N-((1-(2,4-difluorobenzyl)cyclobutyl)methyl)-5-(trifluoromethyl)-4H-1,2,4-triazole-3-carboxamide]: under 4.57; for `CSc1ccc(CC2(CNC(=O)c3nn(C)c(=O)[nH]3)CCC2)cc1` [Example 106, 1-methyl-N-((1-(4-(methylthio)benzyl)cyclobutyl)methyl)-5-oxo-4,5-dihydro-1H-1,2,4-triazole-3-carboxamide]: under 4.57.
The same measure for `Cn1nc(C(=O)NCC2(Cc3ccc(F)cc3F)CCC2)n(C)c1=O` [Example 107, N-((1-(2,4-difluorobenzyl)cyclobutyl)methyl)-1,4-dimethyl-5-oxo-4,5-dihydro-1H-1,2,4-triazole-3-carboxamide]: under 4.57.
Regarding `Cc1cccc(C)c1CC1(CNC(=O)c2nn(C)c(=O)[nH]2)CCC1` [Example 108, N-((1-(2,6-dimethylbenzyl)cyclobutyl)methyl)-1-methyl-5-oxo-4,5-dihydro-1H-1,2,4-triazole-3-carboxamide], the “mPTP Rat liver pIC50” value is under 4.57.
The same measure for `Cn1nc(C(=O)NCC2(Cc3cccc(C(F)(F)F)c3)CCC2)[nH]c1=O` [Example 110, 1-methyl-5-oxo-N-((1-(3-(trifluoromethyl)benzyl)cyclobutyl)methyl)-4,5-dihydro-1H-1,2,4-triazole-3-carboxamide]: under 4.57.
Regarding `CCc1ccc(CC2(CNC(=O)c3nn(C)c(=O)[nH]3)CCC2)cc1` [Example 111, N-((1-(4-ethylbenzyl)cyclobutyl)methyl)-1-methyl-5-oxo-4,5-dihydro-1H-1,2,4-triazole-3-carboxamide], the “mPTP Rat liver pIC50” value is under 4.57.
Then `CCC(CNC(=O)c1nn(C)c(=O)[nH]1)Cc1cscn1` (stereo not drawn) [Example 112, 1-methyl-5-oxo-N-(2-(thiazol-4-ylmethyl)butyl)-4,5-dihydro-1H-1,2,4-triazole-3-carboxamide], with under 4.57; and `CCC(CNC(=O)c1nn(C)c(=O)[nH]1)Cc1cnn(C)c1` (stereo not drawn) [Example 113, 1-methyl-N-(2-((1-methyl-1H-pyrazol-4-yl)methyl)butyl)-5-oxo-4,5-dihydro-1H-1,2,4-triazole-3-carboxamide], with under 4.57.
For `Cn1nc(C(=O)NC[C@H](Cc2ccc(F)c(F)c2)C2CC2)[nH]c1=S` [Example 118, (R)-N-(2-cyclopropyl-3-(3,4-difluorophenyl)propyl)-1-methyl-5-thioxo-4,5-dihydro-1H-1,2,4-triazole-3-carboxamide], the “mPTP Rat liver pIC50” value was determined as 6.26.
Then `Cn1nc(C(=O)NC[C@H](Cc2ccc(F)c(F)c2)C2CC2)[nH]c1=S` [Example 119], with 5.9; and `Cn1nc(C(=O)NCC2(Cc3ccc(F)cc3F)CCCO2)[nH]c1=O` (stereo not drawn) [Example 120], with 6.51.
As to `O=C(NCC1(Cc2ccc(F)cc2F)CC12CC2)c1cncc(=O)[nH]1` (stereo not drawn) [Example 122], the “mPTP Rat liver pIC50” value was 6.31.
The same measure for `Cn1nc(C(=O)NCC2(Cc3ccc(F)cc3F)CC23CC3)[nH]c1=O` (stereo not drawn) [Example 123]: 7.04; for `Cn1nc(C(=O)NC[C@H](Cc2ccccc2)C2CC2)[nH]c1=O` [Example 124]: 6.76; for `CC[C@H](CNC(=O)c1nn(C)c(=O)[nH]1)Cc1c(F)cc(F)cc1F` [Example 125]: 6.55.
As for `Cn1oc(C(=O)NCC2(Cc3ccc(F)cc3F)CCC2)cc1=O` [Example 126], the “mPTP Rat liver pIC50” value was under 4.57.
With `O=C(NCC1(Cc2ccc(F)cc2F)CCC1)c1cn[nH]c(=O)c1` [Example 127], the “mPTP Rat liver pIC50” value was under 4.57.
In the case of `O=C(NCC1(Cc2ccc(F)cc2F)CCC1)c1cc(O)ccn1` [Example 128], the “mPTP Rat liver pIC50” value turned out to be 6.01.
In the case of `CCC(F)(CNC(=O)c1nn(C)c(=O)[nH]1)Cc1ccc(F)cc1F` (stereo not drawn) [Example 129, N-(2-(2,4-difluorobenzyl)-2-fluorobutyl)-1-methyl-5-oxo-4,5-dihydro-1H-1,2,4-triazole-3-carboxamide], the “mPTP Rat liver pIC50” value worked out at 6.45.
The same measure for `O=C(NCC1(Cc2ccc(F)cc2F)CCC1)c1ccn[nH]c1=O` [Example 134, N-((1-(2,4-difluorobenzyl)cyclobutyl)methyl)-3-oxo-2,3-dihydropyridazine-4-carboxamide]: under 4.57; for `CC[C@@H](Cc1ccccc1)C(C)NC(=O)c1nn(C)c(=O)[nH]1` (stereo partly drawn) [Example 135]: 6.52.
Then `O=C(NC[C@H](Cc1ccc(F)cc1F)C1CC1)c1cc(=O)[nH]o1` [Example 136], with 6.39.
For the molecule `O=C(NC[C@H](Cc1ccc(F)cc1F)C1CC1)c1coc(=O)[nH]1` [Example 137], the “mPTP Rat liver pIC50” value is listed as 5.58.
The same measure for `O=C(NCC1(Cc2ccc(F)cc2F)CCC1)c1c[nH]c(=O)cn1` [Example 138, N-((1-(2,4-difluorobenzyl)cyclobutyl)methyl)-5-oxo-4,5-dihydropyrazine-2-carboxamide]: under 4.57; for `O=C(NCC1(Cc2ccc(F)c(F)c2)CCC1)c1cncc(=O)[nH]1` [Example 139]: 5.73.
As for `O=C(NCC1(Cc2ccc(F)cc2F)CCC1)c1nnn[nH]1` [Example 140], the “mPTP Rat liver pIC50” value is under 4.57.
